In US9981950B2, “Triazoles as NR2B receptor inhibitors” (Janssen Pharmaceuticals, Inc., priority 2014, dated 2018):

molecular target: cloned human NR1/NR2B ion channels (Homo sapiens (Human), UniProt Q05586+Q13224); assay: HNR2BC: calcium influx assay on cloned human NR1/NR2B ion channels expressed in HEK cells; assay type: cell-based; conditions: HEK cells hNR1/NR2B, 100 μM glutamate + 100 μM glycine, 3 parameter plot
Procedure: HNR2BC: Effects of Test Articles on Cloned Human NR1/NR2B Ion Channels Expressed in Mammalian Cells
The ability of test compounds to act as an antagonist of NR1/NR2B were evaluated with a calcium influx assay (Calcium 5 Assay Kit, Molecular Devices).
For the antagonist assessment, NR1/NR2B was activated with the positive control agonist (Mg^2+-free HBPS+100 μM glutamic acid+100 μM glycine). The effect of each test article to inhibit the signal was examined after agonist stimulation and compared to the positive control antagonist (MK-801).
A HEK cell line, stable transfected with hNR1/NR2B was used. This tetracycline inducible cell line is transfected with GRIN1 (GeneBank accession number NM 007327.2) and GRIN2B (GeneBank accession number NM_000834.3.). The cells were cultured in cell culture flasks with DMEM/F12 supplemented with 10% FCS, 1% PenStrep and a selection of additional antibiotics.
Forty-Eight (48) hours before the assay the cells were plated into 96-well black well, flat clear bottom microtiter plates at a density of 50000 cells/well. Twenty-Four (24) hours later the receptor expression was induced by the addition of 1 μg/ml tetracycline in the presence of 2 mM ketamine and 200 μM 7-CKA. After 24 h of receptor induction the plates were used for the assay.
The medium was removed and the cells were loaded with 200 μl loading buffer (Molecular Devices) in Mg2+-free HBPS containing 100 μM 7-CKA at 37° C. for one (1) hour.
The test compounds were then solubilized in 100% DMSO and diluted to yield eight (8) different concentrations in 100% DMSO. A 96 well drug plate was prepared by diluting with water and glycine/glutamate to a 5-fold of final test concentration. Fluorescence intensity of the cells in the plate was measured in a FlexStation using an excitation wavelength of 485 nm and an emission wavelength of 525 nm. Twenty (20) seconds after starting the recordings the compounds together with the agonists glycine (100 μM) and glutamate (100 μM) were added into the wells and the fluorescence measured for ninety (90) seconds in summary.
The IC50 values provided in the paragraph below were determined using a 3 parameter plot.

cloned human NR1/NR2B ion channels, sequence (Q13224 27-1484, other chains not shown): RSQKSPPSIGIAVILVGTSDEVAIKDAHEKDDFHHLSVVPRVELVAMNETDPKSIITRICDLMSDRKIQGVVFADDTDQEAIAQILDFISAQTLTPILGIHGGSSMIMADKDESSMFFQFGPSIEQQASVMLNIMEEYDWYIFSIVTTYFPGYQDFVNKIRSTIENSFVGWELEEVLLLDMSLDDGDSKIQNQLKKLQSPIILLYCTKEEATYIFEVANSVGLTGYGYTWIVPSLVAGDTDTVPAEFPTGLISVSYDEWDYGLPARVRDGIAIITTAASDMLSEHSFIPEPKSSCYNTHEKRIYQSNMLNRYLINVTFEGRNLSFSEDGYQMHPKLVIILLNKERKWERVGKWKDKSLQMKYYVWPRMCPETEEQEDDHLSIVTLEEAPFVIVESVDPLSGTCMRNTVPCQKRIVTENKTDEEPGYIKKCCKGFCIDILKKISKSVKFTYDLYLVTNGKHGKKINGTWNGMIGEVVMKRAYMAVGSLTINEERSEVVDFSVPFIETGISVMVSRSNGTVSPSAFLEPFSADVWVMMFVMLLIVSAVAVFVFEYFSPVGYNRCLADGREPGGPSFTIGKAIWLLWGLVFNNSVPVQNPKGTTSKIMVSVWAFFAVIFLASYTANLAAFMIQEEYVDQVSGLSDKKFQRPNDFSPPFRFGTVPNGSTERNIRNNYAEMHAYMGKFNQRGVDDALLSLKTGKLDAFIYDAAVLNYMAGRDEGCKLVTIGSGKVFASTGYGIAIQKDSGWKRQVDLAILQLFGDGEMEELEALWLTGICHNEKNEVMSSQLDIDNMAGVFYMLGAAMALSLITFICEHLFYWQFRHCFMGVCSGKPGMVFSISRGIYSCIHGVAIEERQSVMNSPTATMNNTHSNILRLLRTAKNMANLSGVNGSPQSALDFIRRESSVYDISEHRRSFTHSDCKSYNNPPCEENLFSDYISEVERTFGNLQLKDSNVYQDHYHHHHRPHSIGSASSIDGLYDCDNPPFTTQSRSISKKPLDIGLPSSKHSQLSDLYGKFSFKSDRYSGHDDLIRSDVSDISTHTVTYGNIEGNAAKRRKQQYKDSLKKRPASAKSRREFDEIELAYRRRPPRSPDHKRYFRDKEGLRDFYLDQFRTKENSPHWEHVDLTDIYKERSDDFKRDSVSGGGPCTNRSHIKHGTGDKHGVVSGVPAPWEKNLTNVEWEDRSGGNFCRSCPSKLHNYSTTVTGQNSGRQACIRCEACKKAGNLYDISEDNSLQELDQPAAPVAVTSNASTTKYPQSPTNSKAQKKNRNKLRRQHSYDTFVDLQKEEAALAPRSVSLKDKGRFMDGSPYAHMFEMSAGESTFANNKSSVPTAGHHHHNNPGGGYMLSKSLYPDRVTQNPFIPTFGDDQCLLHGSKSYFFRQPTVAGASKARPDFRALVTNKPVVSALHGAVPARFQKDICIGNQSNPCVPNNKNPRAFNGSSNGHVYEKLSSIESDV

IC50 [µM] | Structure (SMILES)
17.5 | CC(C)c1nccn1Cc1cn(-c2ccc(Cl)cc2)nn1 [Example 23, 1-(4-Chloro-phenyl)-4-(2-isopropyl-imidazol-1-ylmethyl)-1H-[1,2,3]triazole]
3.79 | Cc1nccn1Cc1cn(-c2ccc(F)c(C(F)F)c2)nn1 [Example 81, 1-(3-Difluoromethyl-4-fluoro-1-phenyl)-4-(2-methyl-imidazol-1-ylmethyl)-1H-[1,2,3]triazole]
4.89 | Fc1ccc(-n2cc(Cn3ccnc3C3CC3)nn2)cc1C(F)F [Example 82, 4-(2-Cyclopropyl-imidazol-1-ylmethyl)-1-(3-difluoromethyl-4-fluoro-phenyl)-1H-[1,2,3]triazole]
0.41 | Cc1nccn1Cc1cn(-c2ccc(Cl)c(OC(F)F)c2)nn1 [Example 93, 1-(4-Chloro-3-difluoromethoxy-phenyl)-4-(2-methyl-imidazol-1-ylmethyl)-1H-[1,2,3]triazole]
1.65 | OCCc1nccn1Cc1cn(-c2ccc(F)c(OC(F)F)c2)nn1 [Example 101, 1-(3-Difluoromethoxy-4-fluoro-phenyl)-4-[2-(2-hydroxy-ethyl)-imidazol-1-ylmethyl]-1H-[1,2,3]triazole]
109 | Cn1nccc1Cc1cn(-c2ccc(F)c(Cl)c2)nn1 [Example 109, 1-(3-Chloro-4-fluoro-phenyl)-4-(2-methyl-2H-pyrazol-3-ylmethyl)-1H-[1,2,3]triazole]
0.84 | Nc1nccn1Cc1cn(-c2ccc(Cl)c(C(F)F)c2)nn1 [Example 113A, 4-(2-amino-imidazol-1-ylmethyl)-1-(4-chloro-3-difluoromethyl-phenyl)-1H-[1,2,3]triazole]
0.66 | Nc1nccn1Cc1cn(-c2ccc(F)c(C(F)F)c2)nn1 [Example 113B, 4-(2-amino-imidazol-1-ylmethyl)-1-(4-fluoro-3-difluoromethyl-phenyl)-1H-[1,2,3]triazole]
2.34 | CC(F)(F)c1cc(-n2cc(Cn3ccnc3N)nn2)ccc1F [Example 114]

Structure (SMILES) | IC50 [µM]
CC(C)c1nccn1Cc1cn(-c2ccc(F)c(C(F)F)c2)nn1 [Example 84, 1-(3-Difluoromethyl-4-fluoro-phenyl)-4-(2-isopropyl-imidazol-1-ylmethyl)-1H-[1,2,3]triazole] | 4.2

system: Male NMRI mice; assay: Forced swim test in mice; assay type: in vivo; conditions: p.o. 30 minutes before the test
Procedure: The method, which detects antidepressant activity, follows that described by Porsolt et al (Arch. Int. Pharmacodyn., 229, 327-336, 1977), which is incorporated by reference herein in its entirety.
Mice forced to swim in a situation from which they cannot escape rapidly become immobile. Antidepressants decrease the duration of immobility.
Male NMRI mice (Janvier, France), weighing 20-30 g, were individually placed in a cylinder (height=24 cm; diameter=13 cm) containing 10 cm water (22° C.) from which they cannot escape.
The mice were placed in the water for 6 minutes and the duration of immobility during the last 4 minutes was measured. The latency to the first bout of immobility was also recorded starting from the beginning of the test. 10 mice were studied per group. The test substance was administered p.o. 30 minutes before the test and compared with vehicle control group. The test was performed blind.

Structure (SMILES) | Minimum effective dose (mg/kg p.o.) [mg/kg]
Fc1ccc(-n2cc(Cn3ccnc3C3CC3)nn2)cc1C(F)F [Example 82, 4-(2-Cyclopropyl-imidazol-1-ylmethyl)-1-(3-difluoromethyl-4-fluoro-phenyl)-1H-[1,2,3]triazole] | 60
OCCc1nccn1Cc1cn(-c2ccc(F)c(OC(F)F)c2)nn1 [Example 101, 1-(3-Difluoromethoxy-4-fluoro-phenyl)-4-[2-(2-hydroxy-ethyl)-imidazol-1-ylmethyl]-1H-[1,2,3]triazole] | >30
